# Measured values from patent US20210121426A1, “BLOOD PURIFICATION BY ALKALINIZING AGENT” (TOHOKU UNIVERSITY, priority 2017, published 2021).
# Marks after values point to notes of the source that are not given here.
# Legend:
# [1] = tested on: cystatin C; assay: Human clinical trial: cystatin C (colloidal gold agglutination method); format: in vivo
# Experimental: (§1) 1. […] Patients were assigned to each group so that age, sex, presence of diabetes, and eGFR were not biased. Each group was treated according to the “CKD medical care guide-summary of treatment” (hereinafter referred to as standard treatment).
# (§2) An alkalinizing agent was not administered to the control group. […] A pH of early morning urine was controlled over time so that the dosage could be increased up to 6 tablets, 3 times a day (morning, noon, evening) as needed according to the discretion of the physician in cases where a pH of early morning urine was less than pH 6.5. To the group B, 3 tablets a day in which each tablet contained 500 mg of sodium bicarbonate were orally administered 3 times a day (morning, noon, evening) for 24 weeks. A pH of early morning urine was controlled over time so that the dosage could be increased up to 6 tablets, 3 times a day (morning, noon, evening) as needed according to the discretion of the physician in cases where a pH of early morning urine was less than pH 6.5.
# (§3) Early morning urine and blood were collected before the start of administration, and 6 weeks, 12 weeks, and 24 weeks after the start of administration, and each specimen was stored at −80° C. Methods used in the present field for indoxyl sulfate, p-cresyl sulfate, phenylacetyl-L-glutamine, hippuric acid, and argininosuccinic acid in urine and blood (Sato, E., et. al., Metabolic alteration by indoxyl sulfate in skeletal muscle induce uremic sarcopenia in chronic kidney disease., Sci Rep. 2016 Nov. 10; 6:36618. doi: 10.1038/srep36618, and the like) were referred to, and quantitative analysis was performed using the following liquid chromatography triple quadrupole mass spectrometer (LC-MS/MS).
# In addition, the amount of urinary β2-microglobulin was measured by latex agglutination method using the LZ test “Eiken” β2-M and LZ-β2-M standard U “Eiken” (Eiken Chemical Co., Tokyo, Japan). Furthermore, the amount of cystatin C in the serum was measured by a colloidal gold agglutination method using Nescoat GC Cystatin C (Nm) (Alfresa Pharma, Osaka, Japan).
# (§4) For statistical analysis, the Mann-Whitney test was used for comparison between groups, and the Wilcoxon test was used for comparison of changes over time. The Pearson test was used for correlation.
# [2] = tested on: phenylacetyl-L-glutamine; assay: Human clinical trial in CKD patients: phenylacetyl-L-glutamine in plasma and early morning urine (LC-MS/MS); format: in vivo; set-up: key to Influence on concentration of PAG / Influence on PAG U/P ratio: Excellent effects: ◯; Poor effects: X; No significant difference: —; (◯): whether or not there is an effect of promoting excretion of indoxyl sulfate into the urine cannot be determined
# Experimental: as §1, §2, §3
# For LC, NANOSPACE SI-2 (manufactured by Shiseido) was used, and […] MGM was selected as the analytical column.
# For MS, TSQ Quantiva (manufactured by Thermo Fisher Scientific Co., Ltd.) was used, and five compounds were ionized in the negative mode and detected using the Selected Reaction Monitoring method. The quantitative value was calculated using a calibration curve prepared with a standard solution of each compound.
# as §4
# Then, the average value and SD of each group were calculated for (i) to (ix) above. For each of (iv) to (ix) above, the average value and SD of each group were calculated for all data of 6 weeks, 12 weeks, and 24 weeks after the start of administration in each group.
# [3] = tested on: indoxyl sulfate; assay: Urine indoxyl sulfate (IS) corrected by urinary specific gravity; format: in vivo, human
# Description: Medical Examination, Vol. 44, No. 1, 1995, pages 79-83 by Tetsuo Aoki et al. was referred to. A urinary specific gravity 1.022 was converted into a reference value.
# Specific gravity correction value (unit/1.022·UG)=actual measurement value×(1.022−1.000)/(specific gravity value−1.000)
# [4] = 0 W, before the start of administration
# [5] = 6-24 W, all data of 6, 12 and 24 weeks
compound,measurement,setting,value
"O=C([O-])O.[Na+] [Bicarbonate, sodium bicarbonate]",Plasma Cystatine C,[1]; [4],1.165 ± 0.296 mg/L
same,Plasma Cystatine C,[1]; [5],1.154 ± 0.278 mg/L
same,Plasma Cystatine C,[1]; 6 W,1.171 ± 0.281 mg/L
same,Plasma Cystatine C,[1]; 12 W,1.151 ± 0.295 mg/L
same,Plasma Cystatine C,[1]; 24 W,1.141 ± 0.275 mg/L
same,influence on the function of glomeruli,"[1]; from cystatin C, Table 8",no influence
same,Phenyl Acetyl L-Glutamine (PAG)-Urine/Plasma ratio,[2]; [4],102.2 ± 96.5
same,Plasma Phenyl Acetyl L-Glutamine (PAG),[2]; [4],1324 ± 949 ng/mL
same,Urine Phenyl Acetyl L-Glutamine (PAG) (early morning urine),[2]; [4],124676 ± 149757 ng/mL
same,"PAG - Urine/Plasma ratio, change from week 0",[2]; [5],−14.9 ± 95.3
same,Phenyl Acetyl L-Glutamine (PAG)-Urine/Plasma ratio,[2]; [5],87.3 ± 86.2
same,"Plasma PAG, change from week 0",[2]; [5],-98.6 ± 688.1 ng/mL
same,Plasma Phenyl Acetyl L-Glutamine (PAG),[2]; [5],1226 ± 983 ng/mL
same,"Urine PAG, change from week 0",[2]; [5],-13663 ± 74566 ng/mL
same,Urine Phenyl Acetyl L-Glutamine (PAG) (early morning urine),[2]; [5],109378 ± 163923 ng/mL
same,"PAG - Urine/Plasma ratio, change from week 0",[2]; 6 W,−8.5 ± 57.8
same,Phenyl Acetyl L-Glutamine (PAG)-Urine/Plasma ratio,[2]; 6 W,93.7 ± 84.0
same,"Plasma PAG, change from week 0",[2]; 6 W,-84.0 ± 636.1 ng/mL
same,Plasma Phenyl Acetyl L-Glutamine (PAG),[2]; 6 W,1240 ± 1062 ng/mL
same,"Urine PAG, change from week 0",[2]; 6 W,20077 ± 118811 ng/mL
same,Urine Phenyl Acetyl L-Glutamine (PAG) (early morning urine),[2]; 6 W,144753 ± 246773 ng/mL
same,"PAG - Urine/Plasma ratio, change from week 0",[2]; 12 W,−31.8 ± 81.8
same,Phenyl Acetyl L-Glutamine (PAG)-Urine/Plasma ratio,[2]; 12 W,70.4 ± 46.8
same,"Plasma PAG, change from week 0",[2]; 12 W,-171.6 ± 896.9 ng/mL
same,Plasma Phenyl Acetyl L-Glutamine (PAG),[2]; 12 W,1153 ± 1000 ng/mL
same,"Urine PAG, change from week 0",[2]; 12 W,-42198 ± 85069 ng/mL
same,Urine Phenyl Acetyl L-Glutamine (PAG) (early morning urine),[2]; 12 W,82478 ± 112943^b ng/mL
same,concentration of phenylacetyl-L-glutamine in urine,"[2]; 12 and 24 weeks after administration, compared to before administration",such an effect was not recognized
same,"PAG - Urine/Plasma ratio, change from week 0",[2]; 24 W,−4.3 ± 133.9
same,Phenyl Acetyl L-Glutamine (PAG)-Urine/Plasma ratio,[2]; 24 W,97.9 ± 116.4
same,"Plasma PAG, change from week 0",[2]; 24 W,-40.3 ± 514.7 ng/mL
same,Plasma Phenyl Acetyl L-Glutamine (PAG),[2]; 24 W,1284 ± 945 ng/mL
same,"Urine PAG, change from week 0",[2]; 24 W,-23774 ± 117957 ng/mL
same,Urine Phenyl Acetyl L-Glutamine (PAG) (early morning urine),[2]; 24 W,100902 ± 91424 ng/mL
same,Influence on concentration of PAG,"[2]; Plasma, comparison with Cont",—
same,Influence on concentration of PAG,"[2]; Plasma, comparison with reference drug",—
same,Influence on PAG U/P ratio,[2]; comparison with Cont,—
same,Influence on PAG U/P ratio,[2]; comparison with reference drug,—
same,Influence on concentration of PAG,"[2]; Urine, comparison with Cont",—
same,Influence on concentration of PAG,"[2]; Urine, comparison with reference drug",X
same,concentration of phenylacetyl-L-glutamine in plasma (decreasing effect),[2]; compared to before administration,strongly recognized
same,"Urine IS, specific gravity corrected","[3]; 6-24 W, all data",76.7 ± 38.0 μg · mL^−1/1.022 · UG
same,"Urine IS, specific gravity corrected, % Relative value vs week 0","[3]; 6-24 W, all data",89 ± 45%
same,"Urine IS, specific gravity corrected, difference vs week 0","[3]; 6-24 W, all data",−15.9 ± 34.4 μg · mL^−1/1.022 · UG
same,"Urine IS, specific gravity corrected",[3]; 6 W,83.3 ± 41.9 μg · mL^−1/1.022 · UG
same,"Urine IS, specific gravity corrected, % Relative value vs week 0",[3]; 6 W,95 ± 30%
same,"Urine IS, specific gravity corrected, difference vs week 0",[3]; 6 W,−9.3 ± 27.7 μg · mL^−1/1.022 · UG
same,"Urine IS, specific gravity corrected, % Relative value vs week 0",[3]; 12 W,77 ± 42%
same,"Urine IS, specific gravity corrected, difference vs week 0",[3]; 12 W,−27.0 ± 32.9^ μg · mL^−1/1.022 · UG
same,"Urine IS, specific gravity corrected",[3]; 24 W,81.1 ± 41.6 μg · mL^−1/1.022 · UG
same,"Urine IS, specific gravity corrected, % Relative value vs week 0",[3]; 24 W,95 ± 59%
same,"Urine IS, specific gravity corrected, difference vs week 0",[3]; 24 W,−11.4 ± 40.8 μg · mL^−1/1.022 · UG
